Assay: Plasma hesperetin levels after ingestion (FIG. 2)
Format: in vivo
Excerpt: FIG. 2 is a graph comparing the plasma hesperetin levels depending on whether hesperetin-7-glucoside alone is ingested, whether hesperidin alone is ingested or whether a composition according to the present invention is consumed.
Without wishing to be bound by theory, it is thought that this is due to the presence of enzymes which are able to cleave the glucose moiety off, such that hesperetin is readily absorbable.
Without wishing to be bound by theory, it is thought that this is due to the presence of enzymes able to cleave the rutinose moiety of hesperidin only at a later stage of passage through the gastro-intestinal tract.
Thus, the compositions of the present invention advantageously provide a plasma level of hesperetin which is sustained over a longer period of time (cf. FIG. 2).
Indeed, after the ingestion of the compositions of the present invention, the hesperetin plasma levels are maintained for a sustained period of time (FIG. 2).

| Structure (SMILES) | plasma level of hesperetin (in vivo) | plasma level of hesperetin (after ingestion, FIG. 2) |
| --- | --- | --- |
| COc1ccc(C2CC(=O)c3c(O)cc(OC4OC(CO)C(O)C(O)C4O)cc3O2)cc1O (centres unmarked) [hesperetin-7-glucose, hesperetin-7-glucoside] | sharp peak shortly after ingestion |  |
| COc1ccc([C@@H]2CC(=O)c3c(O)cc(O[C@@H]4O[C@H](CO[C@@H]5O[C@@H](C)[C@H](O)[C@@H](O)[C@H]5O)[C@@H](O)[C@H](O)[C@H]4O)cc3O2)cc1O [hesperidin] |  | appears only later and to a smaller extent |

Source: patent US8475786B2, “Long-lasting absorption of flavonoids” (Nestec S.A., priority 2006, dated 2013)
